From patent publication EP3212201B1, “NUCLEOSIDE KINASE INHIBITORS” (BCI Pharma, priority 2014, dated 2016)

What was measured:
Test in all cases: FRET-based coupled-enzyme protein kinase inhibition assay
Format in all cases: biochemical
Conditions in all cases: compound at 10 µM, 1% DMSO
ACVR1B (ALK4) = molecular target: T1, ACVR1B (ALK4) (Homo sapiens, UniProt P36896)
T1 sequence (P36896 24-505): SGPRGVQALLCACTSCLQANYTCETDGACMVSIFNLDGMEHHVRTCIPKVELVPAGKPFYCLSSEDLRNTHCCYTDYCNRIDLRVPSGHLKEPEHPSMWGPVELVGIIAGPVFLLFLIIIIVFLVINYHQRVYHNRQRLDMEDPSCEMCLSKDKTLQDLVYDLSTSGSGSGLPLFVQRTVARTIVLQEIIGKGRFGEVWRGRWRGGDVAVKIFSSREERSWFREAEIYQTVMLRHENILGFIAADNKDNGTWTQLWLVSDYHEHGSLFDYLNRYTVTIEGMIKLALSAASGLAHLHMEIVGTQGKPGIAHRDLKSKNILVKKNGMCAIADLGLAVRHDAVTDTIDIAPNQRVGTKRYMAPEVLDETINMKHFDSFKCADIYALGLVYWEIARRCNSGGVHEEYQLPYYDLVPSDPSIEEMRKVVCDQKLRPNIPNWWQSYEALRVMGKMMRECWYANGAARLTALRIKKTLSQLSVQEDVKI
Procedure, shortened: (§1)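 Inhibition was quantified ratiometrically, as coumarin over fluorescein emission following 400 nm excitation, on a doubly labeled peptide whose cleavage by development reagent requires it to remain unphosphorylated. Kinase reactions ran 60 min at room temperature with ATP at apparent Km.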

AKT1 (PKB alpha) = AKT1 (PKB alpha) (Homo sapiens, UniProt P31749)
Procedure, shortened: as §1

FRAP1 (mTOR) = FRAP1 (mTOR) (Homo sapiens, UniProt P42345)
Procedure, shortened: as §1

DYRK3 = molecular target: T2, DYRK3 (Homo sapiens, UniProt O43781)
T2 sequence (O43781 1-588): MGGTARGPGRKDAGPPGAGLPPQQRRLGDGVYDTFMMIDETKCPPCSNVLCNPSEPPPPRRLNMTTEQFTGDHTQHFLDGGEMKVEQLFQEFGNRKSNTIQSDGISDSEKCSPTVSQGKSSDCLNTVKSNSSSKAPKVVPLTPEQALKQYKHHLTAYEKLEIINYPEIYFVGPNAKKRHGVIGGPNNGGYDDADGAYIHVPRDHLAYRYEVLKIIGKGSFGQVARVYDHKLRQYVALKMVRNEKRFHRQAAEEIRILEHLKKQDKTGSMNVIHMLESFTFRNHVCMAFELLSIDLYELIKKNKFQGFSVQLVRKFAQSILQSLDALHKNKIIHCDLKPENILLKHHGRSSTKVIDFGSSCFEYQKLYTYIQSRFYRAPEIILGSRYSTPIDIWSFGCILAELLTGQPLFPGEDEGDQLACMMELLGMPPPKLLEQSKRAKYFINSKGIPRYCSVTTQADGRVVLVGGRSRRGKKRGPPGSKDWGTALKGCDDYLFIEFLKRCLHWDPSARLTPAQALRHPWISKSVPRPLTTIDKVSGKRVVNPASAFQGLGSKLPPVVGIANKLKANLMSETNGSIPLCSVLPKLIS
Procedure, shortened: as §1

GSK3B (GSK3 beta) = GSK3B (GSK3 beta) (Homo sapiens, UniProt P49841)
Procedure, shortened: as §1

CDK1/cyclin B = CDK1/cyclin B (Homo sapiens, UniProt P06493)
Procedure, shortened: as §1

PHKG2 = molecular target: T3, PHKG2 (Homo sapiens, UniProt P15735)
T3 sequence (P15735 1-406): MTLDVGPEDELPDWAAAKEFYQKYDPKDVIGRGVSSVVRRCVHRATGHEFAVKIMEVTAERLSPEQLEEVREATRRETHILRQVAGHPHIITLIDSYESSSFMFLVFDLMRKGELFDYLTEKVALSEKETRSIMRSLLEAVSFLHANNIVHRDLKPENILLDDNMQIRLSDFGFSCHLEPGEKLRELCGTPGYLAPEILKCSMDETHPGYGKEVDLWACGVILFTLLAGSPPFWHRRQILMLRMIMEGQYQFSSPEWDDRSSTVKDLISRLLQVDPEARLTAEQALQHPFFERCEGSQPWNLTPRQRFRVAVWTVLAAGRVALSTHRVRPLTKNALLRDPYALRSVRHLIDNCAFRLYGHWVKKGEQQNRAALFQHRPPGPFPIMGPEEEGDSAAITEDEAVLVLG
Procedure, shortened: as §1

CDK1/cyclin B, sequence (P06493 whole entry, species assumed): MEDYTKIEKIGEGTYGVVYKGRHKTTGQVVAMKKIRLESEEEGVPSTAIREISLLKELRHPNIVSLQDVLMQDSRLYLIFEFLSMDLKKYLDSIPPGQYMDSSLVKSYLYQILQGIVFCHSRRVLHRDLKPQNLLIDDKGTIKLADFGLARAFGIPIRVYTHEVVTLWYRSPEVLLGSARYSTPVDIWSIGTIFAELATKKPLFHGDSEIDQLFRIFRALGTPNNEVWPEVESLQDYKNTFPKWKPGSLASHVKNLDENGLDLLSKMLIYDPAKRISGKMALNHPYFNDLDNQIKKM
CDK1/cyclin B, sequence (P14635 whole entry partner, species assumed): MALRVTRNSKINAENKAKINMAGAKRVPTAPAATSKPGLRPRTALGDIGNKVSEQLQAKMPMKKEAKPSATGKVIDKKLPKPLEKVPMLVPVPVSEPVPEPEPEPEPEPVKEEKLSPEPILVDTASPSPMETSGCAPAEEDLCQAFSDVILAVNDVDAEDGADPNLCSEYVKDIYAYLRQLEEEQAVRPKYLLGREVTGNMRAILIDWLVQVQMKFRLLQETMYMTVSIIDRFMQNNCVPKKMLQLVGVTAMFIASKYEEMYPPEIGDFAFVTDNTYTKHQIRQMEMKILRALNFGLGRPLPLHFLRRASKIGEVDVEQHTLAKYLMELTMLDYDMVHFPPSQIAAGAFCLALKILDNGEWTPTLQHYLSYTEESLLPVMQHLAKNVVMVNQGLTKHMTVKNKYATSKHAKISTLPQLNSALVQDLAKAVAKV
GSK3B (GSK3 beta), sequence (P49841 whole entry, species assumed): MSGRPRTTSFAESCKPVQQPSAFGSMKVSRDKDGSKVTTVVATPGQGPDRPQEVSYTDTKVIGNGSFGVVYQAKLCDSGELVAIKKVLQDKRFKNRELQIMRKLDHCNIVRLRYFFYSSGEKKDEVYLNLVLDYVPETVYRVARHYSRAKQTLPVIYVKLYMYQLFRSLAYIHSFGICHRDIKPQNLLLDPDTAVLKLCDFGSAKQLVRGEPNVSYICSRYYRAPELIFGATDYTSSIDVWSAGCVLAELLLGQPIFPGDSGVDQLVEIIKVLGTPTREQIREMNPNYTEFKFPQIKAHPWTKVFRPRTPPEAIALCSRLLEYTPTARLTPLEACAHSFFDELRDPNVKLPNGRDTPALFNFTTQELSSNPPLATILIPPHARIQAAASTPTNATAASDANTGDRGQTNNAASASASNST
AKT1 (PKB alpha), sequence (P31749 whole entry, species assumed): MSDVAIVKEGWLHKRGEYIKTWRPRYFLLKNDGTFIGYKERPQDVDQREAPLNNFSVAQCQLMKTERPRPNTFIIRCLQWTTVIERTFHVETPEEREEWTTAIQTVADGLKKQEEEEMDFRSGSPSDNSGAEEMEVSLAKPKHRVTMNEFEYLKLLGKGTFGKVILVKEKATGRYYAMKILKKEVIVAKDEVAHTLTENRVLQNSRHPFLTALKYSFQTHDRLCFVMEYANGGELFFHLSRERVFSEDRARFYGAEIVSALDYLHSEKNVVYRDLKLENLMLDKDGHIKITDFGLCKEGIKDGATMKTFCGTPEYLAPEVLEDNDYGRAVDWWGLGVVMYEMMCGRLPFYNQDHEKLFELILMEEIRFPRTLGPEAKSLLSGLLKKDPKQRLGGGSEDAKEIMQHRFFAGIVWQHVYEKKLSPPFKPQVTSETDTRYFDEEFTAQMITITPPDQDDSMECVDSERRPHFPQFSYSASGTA

SMILES	inhibition at 10 µM (ACVR1B (ALK4))	inhibition at 10 µM (AKT1 (PKB alpha))	inhibition at 10 µM (FRAP1 (mTOR))	inhibition at 10 µM (DYRK3)	inhibition at 10 µM (GSK3B (GSK3 beta))	inhibition at 10 µM (CDK1/cyclin B)	inhibition at 10 µM (PHKG2)
Nc1ncnc2c1ncn2[C@@H]1O[C@H](COC(=O)NC[C@H](O)CO)[C@@H](O)[C@H]1O [Compound C8]	0%	7%	5%	31%	21%	4%	-3%
Nc1ncnc2c1ncn2[C@@H]1O[C@H](COC(=O)N[C@@H]2CCN(Cc3ccccc3)C2)[C@@H](O)[C@H]1O [Compound C10]	4%	4%	-3%	8%	8%	11%	0%
Nc1ncnc2c1ncn2[C@@H]1O[C@H](COC(=O)N2CCN(Cc3ccccc3)CC2CO)[C@@H](O)[C@H]1O (stereo partly shown) [Compound C13]	7%	2%	-1%	9%	4%	9%	0%
CC(C)N1CCC(NC(=O)OC[C@H]2O[C@@H](n3cnc4c(N)ncnc43)[C@H](O)[C@@H]2O)CC1 [Compound C19]	6%	3%	5%	9%	6%	7%	-3%
Nc1ncnc2c1ncn2[C@@H]1O[C@H](COC(=O)NCCN2CCCC2=O)[C@@H](O)[C@H]1O [Compound C22]	3%	0%	0%	3%	3%	7%	-6%
Nc1ncnc2c1ncn2[C@@H]1O[C@H](COC(=O)N2CCC(Cc3ccc(F)cc3)C2)[C@@H](O)[C@H]1O (stereo partly shown) [Compound C66]	1%	-1%	-4%	7%	1%	11%	-2%
Nc1ncnc2c1ncn2[C@@H]1O[C@H](COC(=O)N2CCN(C(=O)N3CCOCC3)CC2)[C@@H](O)[C@H]1O [Compound C89]	0%	2%	-4%	3%	-2%	1%	-2%

More lines, now with the values ahead:

inhibition at 10 µM (ACVR1B (ALK4))	inhibition at 10 µM (AKT1 (PKB alpha))	inhibition at 10 µM (FRAP1 (mTOR))	inhibition at 10 µM (DYRK3)	inhibition at 10 µM (GSK3B (GSK3 beta))	inhibition at 10 µM (CDK1/cyclin B)	inhibition at 10 µM (PHKG2)	SMILES
2%	-2%	-2%	12%	7%	-2%	-3%	Nc1ncnc2c1ncn2[C@@H]1O[C@H](COC(=O)NCCCc2nc3ccccc3[nH]2)[C@@H](O)[C@H]1O [Compound C1]
1%	-2%	-5%	5%	8%	8%	-2%	C[C@@H](NC(=O)OC[C@H]1O[C@@H](n2cnc3c(N)ncnc32)[C@H](O)[C@@H]1O)c1ccc(Cl)cc1 [Compound C4]
-5%	3%	-3%	11%	-6%	3%	-4%	Nc1ncnc2c1ncn2[C@@H]1O[C@H](COC(=O)N2CCC[C@H]2CO)[C@@H](O)[C@H]1O [Compound C9]
0%	0%	-6%	2%	6%	8%	-1%	Nc1ncnc2c1ncn2[C@@H]1O[C@H](COC(=O)N2CCN(CCc3ccccc3)CC2)[C@@H](O)[C@H]1O [Compound C26]
6%	4%	5%	4%	5%	7%	0%	CN1CCN(CCNC(=O)OC[C@H]2O[C@@H](n3cnc4c(N)ncnc43)[C@H](O)[C@@H]2O)CC1 [Compound C46]
1%	8%	-6%	6%	0%	4%	1%	N#CCCN1CCN(C(=O)OC[C@H]2O[C@@H](n3cnc4c(N)ncnc43)[C@H](O)[C@@H]2O)CC1 [Compound C70]
0%	4%	2%	7%	-5%	3%	1%	CN(C)CCNC(=O)OC[C@H]1O[C@@H](n2cnc3c(N)ncnc32)[C@H](O)[C@@H]1O [Compound C85]
-1%	2%	2%	5%	-1%	8%	-1%	CS(=O)(=O)N1CC2(CCN(C(=O)OC[C@H]3O[C@@H](n4cnc5c(N)ncnc54)[C@H](O)[C@@H]3O)CC2)c2ccccc21 [Compound C98]
3%	8%	-2%	12%	5%	5%	1%	Nc1ncnc2c1ncn2[C@@H]1O[C@H](COC(=O)N2CCS(=O)(=O)CC2)[C@@H](O)[C@H]1O [Compound C100]
